The target in test [1] is T1, tripeptidase of L.lactis subsp. cremoris Wg2 (Lactococcus lactis subsp. cremoris, UniProt P0C2T7).
T1 sequence (P0C2T7 1-413): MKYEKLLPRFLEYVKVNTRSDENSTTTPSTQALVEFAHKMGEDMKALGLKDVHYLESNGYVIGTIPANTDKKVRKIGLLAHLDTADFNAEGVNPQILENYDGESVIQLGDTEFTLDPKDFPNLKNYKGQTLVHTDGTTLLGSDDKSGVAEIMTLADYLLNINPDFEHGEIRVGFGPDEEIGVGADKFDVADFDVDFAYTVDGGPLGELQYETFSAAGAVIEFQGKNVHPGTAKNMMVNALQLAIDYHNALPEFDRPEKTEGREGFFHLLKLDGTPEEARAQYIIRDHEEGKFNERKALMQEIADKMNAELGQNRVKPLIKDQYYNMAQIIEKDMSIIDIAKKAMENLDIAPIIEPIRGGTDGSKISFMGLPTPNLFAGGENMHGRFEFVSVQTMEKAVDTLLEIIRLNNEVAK
The experiment in a line: Substrate specificity: peptide hydrolysis analysed by TLC. Further details: key: + : hydrolysis; - : no hydrolysis. In kind it is biochemical. Conditions: peptide hydrolysis by the purified peptidase, 2 mM substrate in 20 mM HEPES (pH 7.0), 60 min at 30°C.

In test [2] the target is T1, tripeptidase of L.lactis subsp. cremoris Wg2. The experiment in a line: Effects of chemical agents on the peptidase activity (leu3 hydrolysis). The settings on record: for effect on the enzyme activity (in words): NEM 0.5 mM, cystine 0.05 mM, phenylarsine oxide 0.1 mM, DTT 1 mM, β-mercaptoethanol 0.4 mM, ferricyanide 3 mM after the reducing agents. In kind it is biochemical.

50 compounds from EP0440303A1 (PROBICOM RESEARCH B.V., priority 1990, dated 1991) can be followed below.

Read-outs that look alike come from different tables or passages of the source. Where a SMILES comes first, the peptide text is derived from it.

With `CC(C)CC(NC(=O)CNC(=O)CN)C(=O)O` (centres unmarked), the activity entry in test [1] is “+”. On to `O[C@H](CS)[C@H](O)CS` (racemic) [DTT, dithiothreitol], for which the “effect on the enzyme activity (in words)” value in test [2] is listed as “strong inhibition”. Further, in test [2] (reagent 1 mM, 0.84 μg enzyme/ml, 10 min at pH 7 (20°C) before leu3 was added, none = 100, read-out: relative activity (%)), the activity at 1000 µM is 4%. For the same compound, the “effect on the enzyme (summary in words)” value in test [2] (summary statement, concentration not given) was “strong inhibition”. On to `C[C@H](N)C(=O)N[C@@H](C)C(=O)O` [Ala2] (H-Ala-Ala-OH), for which the activity entry in test [1] is “-”. Regarding `C[C@H](N)C(=O)N[C@@H](C)C(=O)N[C@@H](C)C(=O)O` [Ala3], the activity entry in test [1] is given as “+”.

Consider `C[C@H](N)C(=O)N[C@@H](C)C(=O)N[C@@H](C)C(=O)N[C@@H](C)C(=O)O` [Ala4] (H-AAAA-OH), for which the activity result in test [1] is “-”. For `C[C@H](N)C(=O)N[C@@H](C)C(=O)N[C@@H](C)C(=O)N[C@@H](C)C(=O)N[C@@H](C)C(=O)O` [Ala5], the activity entry in test [1] is recorded as “-”. As for `C[C@H](N)C(=O)N[C@@H](C)C(=O)N[C@@H](C)C(=O)N[C@@H](C)C(=O)N[C@@H](C)C(=O)N[C@@H](C)C(=O)O` [Ala6], the activity result in test [1] is listed as “-”.

As to `C[C@H](N)C(=O)N[C@@H](CC(=O)O)C(=O)O` [Ala-Asp] (H-Ala-Asp-OH), in test [1], the activity result is “-”.

With `C[C@H](N)C(=O)N[C@@H](Cc1cnc[nH]1)C(=O)N[C@@H](C)C(=O)O` [Ala-His-Ala] (H-Ala-His-Ala-OH), in test [1], the activity result is “+”. On the same count and under the same terms, with `C[C@H](N)C(=O)N1CCC[C@H]1C(=O)N[C@@H](C)C(=O)O` [Ala-Pro-Ala] (H-Ala-Pro-Ala-OH) the entry was “-”; with `C[C@H](N)C(=O)N1CCC[C@H]1C(=O)N[C@@H](Cc1ccccc1)C(=O)O` [Ala-Pro-Phe] (H-Ala-Pro-Phe-OH), “-”; with `CC(C)CC(NC(=O)C(NC(=O)C(C)N)C(C)C)C(=O)O` (stereo not drawn) [Ala-Val-Leu], “+”. Same read-out and setting: with `N=C(N)NCCCC(N)C(=O)NCC(=O)NCC(=O)O` (stereo not drawn) [Arg-Gly-Gly] the entry was “+”. Take `N[C@@H](CSSC[C@H](N)C(=O)O)C(=O)O` [Cystine, cystine]: the “effect on the enzyme activity (in words)” value in test [2] is listed as “had no effect on the enzyme activity”. Further, the activity at 50 µM in test [2] (reagent 0.05 mM, 0.84 μg enzyme/ml, 10 min at pH 7 (20°C) before leu3 was added, none = 100, read-out: relative activity (%)) was 118%. Turning to `C[C@H](NC(=O)[C@@H](N)CCC(=O)O)C(=O)O` [Glu-Ala] (H-Glu-Ala-OH), the activity entry in test [1] was “-”. On to `N[C@@H](CCC(=O)O)C(=O)N[C@@H](CCC(=O)O)C(=O)O` [Glu-Glu] (H-Glu-Glu-OH), for which, in test [1], the activity result is recorded as “-”. For `NCCCC[C@H](NC(=O)[C@@H](N)CCC(=O)O)C(=O)O` [Glu-Lys] (H-Glu-Lys-OH), the activity entry in test [1] is “-”. Same read-out and setting: with `CC(C)[C@H](NC(=O)[C@@H](N)CCC(=O)O)C(=O)N[C@@H](Cc1ccccc1)C(=O)O` [Glu-Val-Phe] (H-Glu-Val-Phe-OH) the entry was “+”; with `CC(C)[C@H](NC(=O)[C@@H](N)CCC(=O)O)C(=O)O` [Glu-Val] (H-Glu-Val-OH), “-”; with `NCC(=O)NCC(=O)NCC(=O)O` [Gly-Gly-Gly] (H-Gly-Gly-Gly-OH), “+”. Same read-out and setting: with `NCC(=O)NCC(=O)NC(Cc1ccccc1)C(=O)O` (stereo not drawn) [Gly-Gly-Phe] the entry was “+”; with `NCC(=O)NCC(=O)O` [Gly-Gly] (H-Gly-Gly-OH), “-”. In the case of `NCC(=O)NC(Cc1cnc[nH]1)C(=O)NCC(=O)O` (stereo not drawn) [Gly-His-Gly], the activity result in test [1] is “+”. Still for that read-out and setting: with `CC(C)CC(NC(=O)CN)C(=O)NC(Cc1ccc(O)cc1)C(=O)O` (stereo not drawn) [Gly-Leu-Tyr] (H-Gly-Leu-Tyr-OH; configuration not given here) the entry was “+”. The same measure, in the same setting: with `CC(C)CC(NC(=O)C(Cc1ccccc1)NC(=O)CN)C(=O)O` (stereo not drawn) [Gly-Phe-Leu] (H-Gly-Phe-Leu-OH; configuration not given here) the entry was “+”; with `CC(NC(=O)C1CCCN1C(=O)CN)C(=O)O` (stereo not drawn) [Gly-Pro-Ala], “-”; with `NCC(=O)N1CCC[C@H]1C(=O)NCC(=O)NCC(=O)O` [Gly-Pro-Gly-Gly] (H-GPGG-OH), “-”. The same measure, in the same setting: with `CC(NC(=O)C(CO)NC(=O)CN)C(=O)O` (stereo not drawn) [Gly-Ser-Ala] the entry was “+”; with `CC(NC(=O)C(Cc1ccc(O)cc1)NC(=O)CN)C(=O)O` (stereo not drawn) [Gly-Tyr-Ala], “+”. Consider `NC(Cc1cnc[nH]1)C(=O)NCC(=O)NCC(=O)O` (stereo not drawn) [His-Gly-Gly], for which the activity result in test [1] is on record as “+”. Still for that read-out and setting: with `CC(C)C[C@H](N)C(=O)NCC(=O)NCC(=O)O` [Leu-Gly-Gly, leucyl-glycyl-glycine] (H-Leu-Gly-Gly-OH) the entry was “+”; with `CC(C)C[C@H](N)C(=O)NCC(=O)O` [Leu-Gly] (H-Leu-Gly-OH), “-”. The same measure, in the same setting: with `CC(C)C[C@H](NC(=O)[C@H](CC(C)C)NC(=O)[C@@H](N)CC(C)C)C(=O)O` [Leu-Leu-Leu, leucyl-leucyl-leucine] (H-Leu-Leu-Leu-OH) the entry was “+”; with `CC(C)C[C@H](NC(=O)[C@@H](N)CC(C)C)C(=O)O` [Leu-Leu], “-”; with `CSCC[C@H](NC(=O)[C@@H](N)CC(C)C)C(=O)O` [Leu-Met] (H-Leu-Met-OH), “-”. Take `COC(CNC(=O)c1ccccc1OCC(=O)O)[CH2][Hg][OH]` (centres unmarked) [Mersalyl, o-(3-hydroxymercuri-2-methoxypropyl)carbamylphenoxyacetate]: the “effect on the enzyme (summary in words)” value in test [2] was “not inhibited”.

In the case of `CSCCC(N)C(=O)NCC(=O)NCC(=O)O` (stereo not drawn) [Met-Gly-Gly], in test [1], the activity result was “+”. `CSCC[C@H](NC(=O)[C@H](Cc1ccccc1)NC(=O)CNC(=O)CNC(=O)[C@@H](N)Cc1ccc(O)cc1)C(=O)O` [Met-enkephalin]: in test [1], the activity entry is reported as “-”.

For the compound `NCCC[C@H](NC(=O)[C@H](CCCN)NC(=O)[C@@H](N)CCCN)C(=O)O` [Orn-Orn-Orn], the activity entry in test [1] is “+”.

On to `NC(Cc1ccccc1)C(=O)NCC(=O)NCC(=O)O` (stereo not drawn) [Phe-Gly-Gly], for which the activity entry in test [1] is given as “+”.

As to `CC(C)C[C@H](NC(=O)[C@@H](N)Cc1ccccc1)C(=O)O` [Phe-Leu] (H-Phe-Leu-OH), the activity entry in test [1] was “-”. Consider `O=C(O)CNC(=O)CNC(=O)C1CCCN1` (stereo not drawn) [Pro-Gly-Gly], for which the activity result in test [1] was “+”. Still for that read-out and setting: with `NC(CO)C(=O)NCC(=O)NCC(=O)O` (stereo not drawn) [Ser-Gly-Gly] the entry was “+”. As to `CSCC[C@H](NC(=O)[C@H](CC(C)C)NC(=O)CNC(=O)[C@H](Cc1ccccc1)NC(=O)[C@H](Cc1ccccc1)NC(=O)[C@H](CCC(N)=O)NC(=O)[C@H](CCC(N)=O)NC(=O)[C@@H]1CCCN1C(=O)[C@H](CCCCN)NC(=O)[C@@H]1CCCN1C(=O)[C@@H](N)CCCNC(=N)N)C(N)=O` [Substance P], in test [1], the activity entry is given as “-”. The same measure, in the same setting: with `N[C@@H](Cc1c[nH]c2ccccc12)C(=O)NCC(=O)NCC(=O)O` [Trp-Gly-Gly] (H-Trp-Gly-Gly-OH) the entry was “+”; with `N[C@@H](Cc1ccc(O)cc1)C(=O)NCC(=O)NCC(=O)O` [Tyr-Gly-Gly] (H-Tyr-Gly-Gly-OH), “+”. Regarding `CC(C)[C@H](N)C(=O)NCC(=O)NCC(=O)O` [Val-Gly-Gly] (H-Val-Gly-Gly-OH), the activity result in test [1] was “+”. Take “Bradykinin (RPPGFSPFR; Bradykinin; UniProt P01042 381-389, looked up)”: the activity entry in test [1] is on record as “-”. For the compound Neurotensin, in test [1], the activity result is “-”. In the case of oxidized β-chain insulin, the activity entry in test [1] is recorded as “-”.
